# Molecular target: T1, cloned human dopamine D3 receptors (Homo sapiens, UniProt P35462)
# T1 construct: expressed in transfected cells; membrane homogenate
# Test: [N-Methyl-3H]Spiroperidol binding to cloned human dopamine D3 receptors (Protocol 1)
# Conditions: the 13th table, unit inferred; read-out: D3Ki
# From the text: [N-Methyl-^3H]Spiroperidol Binding to Cloned Human Dopamine D3 Receptors
# This assay measures the in vitro activity of compounds on cloned human dopamine (D3) receptors and predicts the direct dopamine-blocking properties of putative neuropsychiatric agents at human dopamine D3 receptors.
# The D3 gene was isolated from a human striatal cDNA library (Stratagene). The gene was sequenced and sub-cloned into the expression vector RC/RSV (Invitrogen). CHO (Chinese Hamster Ovary) cells were stably transfected with 10 μg of the D3/RSV plasmid using the DOTAP method from Boehringer Mannheim and 72 clones that were G418 resistant were isolated. Using mRNA and binding displacement data a single high expressing clone was identified. This clone was then grown in large batches for the purpose of developing a 96 well format assay.
# • 1. One plate (10 cm) with approximately 2-3 million D3 cells per plate is incubated with 1 ml of Trypsin-EDTA at room temperature for ˜2 min or until cells have lifted off plates. Four ml of Ham's F12+10% Fetal Bovine Serum+1% Penicillin/Streptomycin+G418 (400 μg/ml) medium are added to resuspend cells and 1 ml of this is added to each large plate (15 cm) containing 19 ml of the-same medium as mentioned above. • 2. The 5 large plates are incubated at 37° C.+5% CO2 for ˜3 days or until the cells are confluent. • 3. After these plates are confluent, they are split into 10 large plates. Medium is aspirated off, 2 ml of Trypsin-EDTA are added to each plate and plates are incubated at RT for 2 min or until cells have lifted off the plate. Eight ml of the F12 medium (same medium as #1 above) are added to each plate (10 ml total) to resuspend the cells and 5 ml are transferred to the 2 new plates containing 15 ml of the F12 media. • 4. The 10 large plates are incubated at 37° C.+5% CO2 for ˜2 days or until the cells are confluent. • 5. The 10 large plates are split into 60 large plates (using Trypsin-EDTA as #3 except 4 ml of F12 medium are added to resuspend cells and 1 ml is aliquoted to 6 new plates containing 19 ml of F12 medium each). • 6. Plates are incubated at […]+5% CO2 for ˜3 days or until cell are confluent. • 7. The 60 large plates are then split into 60 roller bottles (100-150 million cells/bottle). Medium is aspirated off, 2 ml of Trypsin-EDTA are added to each plate and incubated at RT for ˜2 minutes or until cells have lifted off plates. Eight ml of F12 medium are added to each plate to resuspend cells and the entire 10 ml are added to 1 roller bottle containing 90 ml of the F12 medium. • 8. The 60 roller bottles are immediately placed on their sides and transferred to the roller bottle incubator. They are incubated at 37° C.+5% CO2 for ˜3-5 days. Cells are spun at 30-40% motor speed in the Forma incubator. • 9. Medium is poured off and cells are washed 2× in PBS. • 10. Cells are then scraped off in 20 ml of PBS and the bottles are rinsed again with 5 ml of PBS to remove any remaining cells. Cells are stored on ice before membrane preparation. • 11. The yield for 60 D3 roller bottles has varied from ˜260-500 mg. • Note: All tissue culture reagents are from Gibco-BRL. C. Membrane Preparation
# The cells are harvested into 250 ml centrifuge tubes with 100 volumes of cold phosphate buffered saline (PBS) and spun down (1200×G for 10 min at 4° C.). The medium is removed and 100 ml PBS are added to each centrifuge tube, cells are resuspend and spun down again. The PBS is removed and the final pellet is homogenized in an appropriate volume of 10% DMSO with a polytron on ice at a medium setting.
# 1. 0.5M Tris Buffer, pH 7.7 • a) 44.4 g Tris HCl 26.5 g Tris Base q.s. to 1 Liter (0.5 M Tris buffer, pH 7.7 at 37° C.) • b) make a 1:10 dilution in distilled H2O (0.05 M. Tris buffer, pH 7.7) 2. Tris Buffer Containing Physiological Salts • a) Stock buffer • NaCl 7.014 g • KCl 0.372 g • CaCl2 0.222 g • MgCl2 0.204 g • q.s. To 100 ml with 0.5 M. Tris Buffer • b) Dilute 1:10 in distilled H2O […]
# T1 sequence (P35462 whole entry): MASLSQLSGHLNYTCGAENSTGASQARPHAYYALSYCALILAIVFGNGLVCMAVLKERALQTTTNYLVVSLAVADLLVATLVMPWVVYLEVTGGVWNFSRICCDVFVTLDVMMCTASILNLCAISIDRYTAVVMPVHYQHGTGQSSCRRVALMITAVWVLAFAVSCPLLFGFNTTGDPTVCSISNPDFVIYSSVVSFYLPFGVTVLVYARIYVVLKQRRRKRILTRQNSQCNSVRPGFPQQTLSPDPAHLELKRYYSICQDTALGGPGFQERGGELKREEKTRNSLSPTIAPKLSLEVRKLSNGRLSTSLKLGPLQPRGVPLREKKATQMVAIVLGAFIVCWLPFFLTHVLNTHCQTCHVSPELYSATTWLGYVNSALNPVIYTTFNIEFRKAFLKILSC
row,Compound,Ki [nM]
1,O=C(NCCCCN1CCCN(c2csc3cc(F)ccc23)CC1)c1cc2ccccc2o1 [822226G],0.82
2,Cn1c(C(=O)NCCCCN2CCCN(c3csc4cc(F)ccc34)CC2)cc2ccccc21 [822228G],1.78
3,O=C(NCCCCN1CCCN(c2csc3cc(C(F)(F)F)ccc23)CC1)c1ccc(-c2ccccc2F)cc1 [S908665],20.3
4,O=C(NCCCCN1CCCN(c2csc3cc(F)ccc23)CC1)c1cc2ccccc2[nH]1 [S977818],1.85
5,O=C(NCCCCN1CCCN(c2csc3cc(F)ccc23)CC1)c1cc2ccccc2o1 [S977819],3.21
6,COc1ccc2[nH]c(C(=O)NCCCCN3CCCN(c4csc5cc(F)ccc45)CC3)cc2c1 [S977820],1.05
7,Cn1c(C(=O)NCCCCN2CCCN(c3csc4cc(F)ccc34)CC2)cc2ccccc21 [S977821],1.65
8,O=C(NCCCCN1CCCN(c2csc3cc(F)ccc23)CC1)c1c[nH]c2ccccc12 [S977822],4.12
9,O=C(NCCCCN1CCCN(c2csc3cc(F)ccc23)CC1)c1cccc2[nH]ccc12 [S977823],3.96
10,O=C(NCCCCN1CCCN(c2csc3cc(F)ccc23)CC1)c1ccc2[nH]ccc2c1 [S977824],1.14
11,O=C(NCCCCN1CCCN(c2csc3cc(F)ccc23)CC1)c1ccc2cc[nH]c2c1 [S977825],0.882
12,CC1=C(C(=O)NCCCCN2CCCN(c3csc4cc(F)ccc34)CC2)Cc2ccccc21 [S977827],0.987
13,Cn1cccc1C(=O)NCCCCN1CCCN(c2csc3cc(F)ccc23)CC1 [S977828],6.97
14,O=C(NCCCCN1CCCN(c2csc3cc(F)ccc23)CC1)c1ccsc1 [S977829],4.18
15,O=C(NCCCCN1CCCN(c2csc3cc(F)ccc23)CC1)c1c[nH]cn1 [S977830],5.8
16,O=C(NCCCCN1CCCN(c2csc3cc(F)ccc23)CC1)c1ccc2[nH]cnc2c1 [S977831],1.87
17,O=C(NCCCCN1CCCN(c2csc3cc(C(F)(F)F)ccc23)CC1)c1cccs1 [S980627],40
18,O=C(NCCCCN1CCCN(c2csc3cc(C(F)(F)F)ccc23)CC1)c1cccc(Cl)c1 [S980628],110
19,O=C(NCCCCN1CCCN(c2csc3cc(C(F)(F)F)ccc23)CC1)c1cccc2ccccc12 [S980631],100
20,O=C(NCCCCN1CCCN(c2csc3cc(C(F)(F)F)ccc23)CC1)c1ccc2ccccc2c1 [S980632],23

row,Compound,Ki [nM]
1,O=C(NCCCCN1CCCN(c2csc3cc(C(F)(F)F)ccc23)CC1)c1cccc(C(F)(F)F)c1 [S980633],230
2,COc1ccccc1C(=O)NCCCCN1CCCN(c2csc3cc(C(F)(F)F)ccc23)CC1 [S980634],14
3,O=C(NCCCCN1CCCN(c2csc3cc(C(F)(F)F)ccc23)CC1)c1cccc(F)c1 [S980635],71
4,O=C(NCCCCN1CCCN(c2csc3cc(C(F)(F)F)ccc23)CC1)c1cc2ccccc2s1 [S980636],18
5,O=C(NCCCCN1CCCN(c2csc3cc(C(F)(F)F)ccc23)CC1)c1ccc(F)cc1 [S980637],43
6,COc1ccc(C(=O)NCCCCN2CCCN(c3csc4cc(C(F)(F)F)ccc34)CC2)cc1OC [S980638],39
7,Cc1ccccc1C(=O)NCCCCN1CCCN(c2csc3cc(C(F)(F)F)ccc23)CC1 [S980639],40
8,COc1cccc(C(=O)NCCCCN2CCCN(c3csc4cc(C(F)(F)F)ccc34)CC2)c1 [S980640],43
9,O=C(NCCCCN1CCCN(c2csc3cc(C(F)(F)F)ccc23)CC1)c1ccc(-c2ccccc2)cc1 [S980641],29
10,CC(C)(C)c1ccc(C(=O)NCCCCN2CCCN(c3csc4cc(C(F)(F)F)ccc34)CC2)cc1 [S980642],69
11,O=C(NCCCCN1CCCN(c2csc3cc(C(F)(F)F)ccc23)CC1)c1cnc2ccccc2n1 [S980643],96
12,O=C(NCCCCN1CCCN(c2csc3cc(C(F)(F)F)ccc23)CC1)c1ccc(C(F)(F)F)cc1 [S980644],570
13,O=C(NCCCCN1CCCN(c2csc3cc(C(F)(F)F)ccc23)CC1)c1ccncc1 [S980645],44
14,O=C(NCCCCN1CCCN(c2csc3cc(C(F)(F)F)ccc23)CC1)c1cccnc1Cl [S980646],110
15,COc1ccc2cc(C(=O)NCCCCN3CCCN(c4csc5cc(C(F)(F)F)ccc45)CC3)[nH]c2c1 [S980647],17
16,Cn1c(C(=O)NCCCCN2CCCN(c3csc4cc(C(F)(F)F)ccc34)CC2)cc2ccccc21 [S980648],35
17,O=C(NCCCCN1CCCN(c2csc3cc(C(F)(F)F)ccc23)CC1)c1c[nH]c2ccccc12 [S980649],54
18,O=C(NCCCCN1CCCN(c2csc3cc(C(F)(F)F)ccc23)CC1)c1cccc2[nH]ccc12 [S980650],43
19,O=C(NCCCCN1CCCN(c2csc3cc(C(F)(F)F)ccc23)CC1)c1ccc2[nH]ccc2c1 [S980651],54
20,O=C(NCCCCN1CCCN(c2csc3cc(C(F)(F)F)ccc23)CC1)c1ccc2cc[nH]c2c1 [S980652],16.8

row,Compound,Ki [nM]
1,O=C(NCCCCN1CCCN(c2csc3cc(C(F)(F)F)ccc23)CC1)c1n[nH]c2ccccc12 [S980653],61
2,Cn1cccc1C(=O)NCCCCN1CCCN(c2csc3cc(C(F)(F)F)ccc23)CC1 [S980655],40
3,O=C(NCCCCN1CCCN(c2csc3cc(C(F)(F)F)ccc23)CC1)c1ccsc1 [S980656],28
4,Cc1nn(-c2ccccc2)nc1C(=O)NCCCCN1CCCN(c2csc3cc(C(F)(F)F)ccc23)CC1 [S980657],175
5,Cc1ccc(Sc2cc(C(=O)NCCCCN3CCCN(c4csc5cc(C(F)(F)F)ccc45)CC3)ccn2)cc1 [S980659],110
6,Cc1nnsc1C(=O)NCCCCN1CCCN(c2csc3cc(C(F)(F)F)ccc23)CC1 [S980660],43.8
7,CSc1nsc(SC)c1C(=O)NCCCCN1CCCN(c2csc3cc(C(F)(F)F)ccc23)CC1 [S980661],151
8,Cc1oc(-c2ccccc2)cc1C(=O)NCCCCN1CCCN(c2csc3cc(C(F)(F)F)ccc23)CC1 [S980662],48
9,Cc1oc(-c2ccc(Cl)cc2)cc1C(=O)NCCCCN1CCCN(c2csc3cc(C(F)(F)F)ccc23)CC1 [S980663],96
10,O=C(NCCCCN1CCCN(c2csc3cc(C(F)(F)F)ccc23)CC1)c1ccc2nonc2c1 [S980664],6.1
11,Cc1nn(-c2ccccc2)nc1C(=O)NCCCCN1CCCN(c2csc3cc(F)ccc23)CC1 [S981833],9
12,O=C(NCCCCN1CCCN(c2csc3cc(F)ccc23)CC1)c1cccnc1Oc1ccccc1 [S981834],1.1
13,Cc1ccc(Sc2ncccc2C(=O)NCCCCN2CCCN(c3csc4cc(F)ccc34)CC2)cc1 [S981835],1.2
14,O=C(NCCCCN1CCCN(c2csc3cc(F)ccc23)CC1)c1ccno1 [S981836],46
15,Cc1nnsc1C(=O)NCCCCN1CCCN(c2csc3cc(F)ccc23)CC1 [S981837],1.3
16,CSc1nsc(SC)c1C(=O)NCCCCN1CCCN(c2csc3cc(F)ccc23)CC1 [S981838],6
17,Cc1oc(-c2ccccc2)cc1C(=O)NCCCCN1CCCN(c2csc3cc(F)ccc23)CC1 [S981839],1.4
18,Cc1oc(-c2ccc(Cl)cc2)cc1C(=O)NCCCCN1CCCN(c2csc3cc(F)ccc23)CC1 [S981840],3.4
19,O=C(NCCCCN1CCCN(c2csc3cc(F)ccc23)CC1)c1ccc(-c2ccccc2F)cc1 [S981842],2.2
20,O=C(NCCCCN1CCCN(c2csc3cc(F)ccc23)CC1)c1cc(C(F)(F)F)cc(C(F)(F)F)c1 [S981844],39

# Reference: US7550469B2, “Heterocyclic amide derivatives and their use as dopamine D3 receptor ligands” (Aventis Pharmaceuticals Inc., priority 2001, dated 2009)
